Assay results taken from patent publication US20250213700A1, “COMPOUNDS, COMPOSITIONS, AND METHODS FOR CELL-SPECIFIC PHARMACOLOGY” (Duke University, priority 2022, published 2025).

Molecular target: T1, HTP in D1 cells of left dorsal striatum (Rhodococcus rhodochrous, UniProt P0A3G2, A155T/A167V/A172T/A224E/C128F/C176G/D78G/E160K/E257K/H272N/K175M/K195N/L47V/L88M/N227D/S58T/T264A/Y273L/Y87F)
T1 construct: SSnlg signal peptide (residues 1-49 of mouse neuroligin-1) (N); Thy1 GPI anchor signal (C); expressed in transfected cells; host or cells: mouse neurons transduced in vivo with AAV-DIO-+HTPGPI (D1-Cre dorsal striatum; PV::cre retinal ganglion cells)
T1 sequence (P0A3G2 other isoform, or with tags, fused parts or gaps with the stated changes): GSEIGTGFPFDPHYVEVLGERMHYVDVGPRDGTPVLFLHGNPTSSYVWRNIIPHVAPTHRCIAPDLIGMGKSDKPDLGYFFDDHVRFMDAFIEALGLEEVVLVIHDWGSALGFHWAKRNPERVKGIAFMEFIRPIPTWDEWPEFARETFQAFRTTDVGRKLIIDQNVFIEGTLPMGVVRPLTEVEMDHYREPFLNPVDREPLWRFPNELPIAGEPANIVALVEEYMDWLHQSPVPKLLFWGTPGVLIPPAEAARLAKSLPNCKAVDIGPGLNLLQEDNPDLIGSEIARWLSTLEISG
Assay: histology of tracer dye capture in dorsal striatum
Assay type: in vivo, mouse
Conditions: 3 µM dye+30 µM drug, histology 24 hr later
Description: FIG. 3A-3F show quantitative engagement of the DART.2 platform. (FIG. 3A) Mice with ^+HTP or ^ddHTP in D1 cells of left dorsal striatum. Open field (1 hr) before and after Alexa488.1^DART.2+YM90K.1^DART.2 (3 µM dye+30 µM drug, 1 μL in 10 min). Histology performed 24 hr later. Left, dTomato expression and Alexa488.1^DART.2 capture from a ^+HTP mouse. […] Right, open-field turning vs dye capture. […] Dye capture can be used as a behavior-independent inclusion criterion (shading), allowing exclusion of 4 ^+HTP mice in this dataset. (FIG. 3B) Older technology lacked tracer^DART. Here, an estimate of technical success with a non-DART dye (fluorogold) was attempted and a numerical algorithm dye-virus overlap was estimated. […] (FIG. 3C and FIG. 3D) Characterization in live mice expressing HTP in dSPNs of the left dorsal striatum. Alexa^DART.2 co-infused with YM90^KDART.2 ligand provided permanent marker of drug capture, tight correspondence between histology and behavioral potency, and 3-fold increase in behavioral potency in comparison to its predecessor. (FIG. 3E and FIG. 3F) YM90^KDART.1 in live mice for comparison with above.
Histology. […] Images were analyzed for pixel intensity using MATLAB.
These advances were combined in a mouse locomotor assay. […] Mice were perfused for histology 24 hrs later, and quantitative measurement of the integrated Alexa capture over the dorsal striatum was performed. […]

Compound: COc1cc(CCCCl)ccc1CCOCCNC(=O)c1ccc(CNC(=O)CCOCCOCCOCCOCCOCCOCCOCCOCCOCCOCCOCCOCCOCCOCCOCCOCCOCCOCCOCCOCCOCCOCCOCCOCCOCCOCCOCCOCCOCCOCCOCCOCCOCCOCCOCCOCCn2cc(CNC(=O)c3ccc(-c4c5ccc(=N)c(S(=O)(=O)O)c-5oc5c(S(=O)(=O)O)c(N)ccc45)c(C(=O)O)c3)nn2)cc1 [Alexa488.1^DART.2, 6-amino-9-(2-carboxy-4-(((1-(1-(4-((2-(4-(3-chloropropyl)-2-methoxyphenethoxy)ethyl)carbamoyl)phenyl)-3-oxo-6,9, 12, 15, 18, 21, 24, 27, 30, 33, 36, 39, 42, 45, 48, 51, 54, 57, 60, 63, 66, 69, 72, 75, 78, 81, 84, 87, 90, 93, 96, 99, 102, 105, 108, 111-hexatriacontaoxa-2-azatridecahectan-113-yl)-1H-1,2,3-triazol-4-yl)methyl)carbamoyl)phenyl)-3-iminio-5-sulfo-3H-xanthene-4-sulfonate]
- dye capture, ddHTP mice: No dye capture detected
